# ChEMBL document CHEMBL3745645, “Synthesis, in vitro antitumor activity, dihydrofolate reductase inhibition, DNA intercalation and structure-activity relationship studies of 1,3,5-triazine analogues” (Bioorg Med Chem Lett, 2016)
# Legend:
# [1] = system: SR; experiment: Cytotoxicity against human SR cells after 48 hrs by SRB assay; type: functional
# [2] = system: MDA-MB-468; experiment: Cytotoxicity against human MDA-MB-468 cells at 10 uM after 48 hrs by SRB assay; type: functional; details: MDA-MB-468, 48 h, read-out: GI
# [3] = system: MCF7; experiment: Cytotoxicity against human MCF7 cells at 10 uM after 48 hrs by SRB assay; type: functional; details: MCF7, 48 h, read-out: GI
# [4] = system: NCI-H460; experiment: Cytotoxicity against human NCI-H460 cells at 10 uM after 48 hrs by SRB assay; type: functional; details: NCI-H460, 48 h, read-out: GI
# [5] = Cytotoxicity against human IGROV1 cells at 10 uM after 48 hrs by SRB assay; type: functional; details: IGROV-1, 48 h, read-out: GI
# [6] = Cytotoxicity against human RXF393 cells at 10 uM after 48 hrs by SRB assay; type: functional; details: RXF 393, 48 h, read-out: GI
# [7] = Cytotoxicity against human MOLT4 cells after 48 hrs by SRB assay; type: functional; details: MOLT-4, 48 h, read-out: LC50 (the source's name)
# [8] = Cytotoxicity against human OVCAR3 cells at 10 uM after 48 hrs by SRB assay; type: functional; details: OVCAR-3, 48 h, read-out: GI
# [9] = system: NCI-H226; experiment: Cytotoxicity against human NCI-H226 cells at 10 uM after 48 hrs by SRB assay; type: functional; details: NCI-H226, 48 h, read-out: GI
# [10] = Cytotoxicity against human SNB75 cells at 10 uM after 48 hrs by SRB assay; type: functional; details: SNB-75, 48 h, read-out: GI
# [11] = Cytotoxicity against human RPMI8226 cells after 48 hrs by SRB assay; type: functional; details: RPMI-8226, 48 h, read-out: LC50 (the source's name)
# [12] = Cytotoxicity against human DU145 cells at 10 uM after 48 hrs by SRB assay; type: functional; details: DU-145, 48 h, read-out: GI
# [13] = Cytotoxicity against human Caki1 cells at 10 uM after 48 hrs by SRB assay; type: functional; details: CAKI-1, 48 h, read-out: GI
# [14] = system: KM12; experiment: Cytotoxicity against human KM12 cells at 10 uM after 48 hrs by SRB assay; type: functional; details: KM12, 48 h, read-out: GI
# [15] = Cytotoxicity against human COLO205 cells after 48 hrs by SRB assay; type: functional; details: COLO 205, 48 h, pooled result: one value given for 7 cell lines, strains, targets or settings
# [16] = system: NCI-H522; experiment: Cytotoxicity against human NCI-H522 cells at 10 uM after 48 hrs by SRB assay; type: functional; details: NCI-H522, 48 h, read-out: GI
# [17] = system: CCRF-CEM; experiment: Cytotoxicity against human CCRF-CEM cells at 10 uM after 48 hrs by SRB assay; type: functional; details: read-out: GI
# [18] = Cytotoxicity against human SNB19 cells at 10 uM after 48 hrs by SRB assay; type: functional; details: SNB-19, 48 h, read-out: GI
# [19] = system: Calf thymus DNA; experiment: Binding affinity to calf thymus DNA by fluorescence spectrophotometric analysis; type: nucleic-acid assay; details: Bos taurus
# [20] = Cytotoxicity against human HCT116 cells at 10 uM after 48 hrs by SRB assay; type: functional; details: HCT-116, 48 h, read-out: GI
# [21] = Cytotoxicity against human SF268 cells at 10 uM after 48 hrs by SRB assay; type: functional; details: SF-268, 48 h, read-out: GI
# [22] = system: SK-MEL-5; experiment: Cytotoxicity against human SK-MEL-5 cells at 10 uM after 48 hrs by SRB assay; type: functional; details: SK-MEL-5, 48 h, read-out: GI
# [23] = Cytotoxicity against human HL-60(TB) cells after 48 hrs by SRB assay; type: functional; details: HL-60, 48 h, read-out: LC50 (the source's name)
# [24] = Cytotoxicity against human SF539 cells at 10 uM after 48 hrs by SRB assay; type: functional; details: SF-539, 48 h, read-out: GI
# [25] = system: SK-MEL-28; experiment: Cytotoxicity against human SK-MEL-28 cells at 10 uM after 48 hrs by SRB assay; type: functional; details: SK-MEL-28, 48 h, read-out: GI
# [26] = system: 786-0; experiment: Cytotoxicity against human 786-0 cells at 10 uM after 48 hrs by SRB assay; type: functional; details: 786-0, 48 h, read-out: GI
# [27] = target: T1, Dihydrofolate reductase (Homo sapiens, UniProt P00374); experiment: Inhibition of human recombinant DHFR expressed in Escherichia coli by spectrophotometric analysis
# T1 sequence (P00374 whole entry): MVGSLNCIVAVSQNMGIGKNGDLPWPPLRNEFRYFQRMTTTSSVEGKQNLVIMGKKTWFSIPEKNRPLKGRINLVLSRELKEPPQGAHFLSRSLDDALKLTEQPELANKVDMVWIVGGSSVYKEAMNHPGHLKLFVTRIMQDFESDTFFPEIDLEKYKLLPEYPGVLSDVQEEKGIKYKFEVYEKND
# [28] = system: T47D; experiment: Cytotoxicity against human T47D cells at 10 uM after 48 hrs by SRB assay; type: functional; details: read-out: GI
# [29] = system: MDA-MB-231; experiment: Cytotoxicity against human MDA-MB-231 cells at 10 uM after 48 hrs by SRB assay; type: functional; details: MDA-MB-231, 48 h, read-out: GI
# [30] = system: SR; experiment: Cytotoxicity against human SR cells at 10 uM after 48 hrs by SRB assay; type: functional; details: read-out: GI
# [31] = Cytotoxicity against human IGROV1 cells after 48 hrs by SRB assay; type: functional; details: IGROV-1, 48 h, pooled result: one value given for 7 cell lines, strains, targets or settings
# [32] = Cytotoxicity against human OVCAR8 cells at 10 uM after 48 hrs by SRB assay; type: functional; details: OVCAR-8, 48 h, read-out: GI
# [33] = Cytotoxicity against human MOLT4 cells at 10 uM after 48 hrs by SRB assay; type: functional; details: MOLT-4, 48 h, read-out: GI
# [34] = system: Malme-3M; experiment: Cytotoxicity against human MALME-3M cells at 10 uM after 48 hrs by SRB assay; type: functional; details: read-out: GI
# [35] = Cytotoxicity against human HOP62 cells at 10 uM after 48 hrs by SRB assay; type: functional; details: HOP-62, 48 h, read-out: GI
# [36] = Cytotoxicity against human UO31 cells at 10 uM after 48 hrs by SRB assay; type: functional; details: UO-31, 48 h, read-out: GI
# [37] = system: A498; experiment: Cytotoxicity against human A498 cells at 10 uM after 48 hrs by SRB assay; type: functional; details: A498, 48 h, read-out: GI
# [38] = system: NCI-H322M; experiment: Cytotoxicity against human NCI-H322M cells at 10 uM after 48 hrs by SRB assay; type: functional; details: read-out: GI
# [39] = system: SN12C; experiment: Cytotoxicity against human SN12C cells at 10 uM after 48 hrs by SRB assay; type: functional; details: read-out: GI
# [40] = system: U-251; experiment: Cytotoxicity against human U251 cells at 10 uM after 48 hrs by SRB assay; type: functional; details: U-251, 48 h, read-out: GI
# [41] = Cytotoxicity against human SKOV3 cells at 10 uM after 48 hrs by SRB assay; type: functional; details: SK-OV-3, 48 h, read-out: GI
# [42] = system: HT-29; experiment: Cytotoxicity against human HT-29 cells at 10 uM after 48 hrs by SRB assay; type: functional; details: HT-29, 48 h, read-out: GI
compound,measurement,setting,value
Cc1nc2ccc(Nc3nc(Cl)nc(Nc4ccc(F)cc4)n3)cc2n1Cc1ccccc1,LC50 (concentration killing 50% of cells),[1],> 100 µM
same,inhibition of growth at 10 µM,[2],30.3%
same,inhibition of growth at 10 µM,[3],37.4%
same,inhibition of growth at 10 µM,[4],20.1%
same,inhibition of growth at 10 µM,[5],33.3%
same,inhibition of growth at 10 µM,[6],15.4%
same,CC50,[7],> 100 µM
same,inhibition of growth at 10 µM,[8],5.09%
same,inhibition of growth at 10 µM,[9],26.8%
same,inhibition of growth at 10 µM,[10],4.24%
same,CC50,[11],> 100 µM
same,inhibition of growth at 10 µM,[12],5.78%
same,inhibition of growth at 10 µM,[13],13.1%
same,inhibition of growth at 10 µM,[14],27.2%
same,GI50,[15],4.91 µM
same,LC50,[15],54.6 µM
same,TGI,[15],18.1 µM
same,inhibition of growth at 10 µM,[16],77.5%
same,inhibition of growth at 10 µM,[17],77.1%
same,inhibition of growth at 10 µM,[18],12%
same,Ka,[19],2.97 ×10⁴ /M
same,inhibition of growth at 10 µM,[20],55.8%
same,inhibition of growth at 10 µM,[21],24.6%
same,inhibition of growth at 10 µM,[22],30.8%
same,CC50,[23],> 100 µM
same,inhibition of growth at 10 µM,[24],1.83%
same,inhibition of growth at 10 µM,[25],8.45%
same,inhibition of growth at 10 µM,[26],20.4%
same,IC50,[27],0.31 µM
same,inhibition of growth at 10 µM,[28],63.2%
same,inhibition of growth at 10 µM,[29],25.9%
same,inhibition of growth at 10 µM,[30],63.9%
same,GI50,[31],8.1 µM
same,LC50 (concentration killing 50% of cells),[31],78.8 µM
same,TGI,[31],29.8 µM
same,inhibition of growth at 10 µM,[32],57.7%
same,inhibition of growth at 10 µM,[33],41.1%
same,inhibition of growth at 10 µM,[34],11.5%
same,inhibition of growth at 10 µM,[35],56.1%
same,inhibition of growth at 10 µM,[36],62.9%
same,inhibition of growth at 10 µM,[37],22.2%
same,inhibition of growth at 10 µM,[38],11.9%
same,inhibition of growth at 10 µM,[39],53.3%
same,inhibition of growth at 10 µM,[40],30.9%
same,inhibition of growth at 10 µM,[41],2.61%
same,inhibition of growth at 10 µM,[42],15.8%
